Results as given in patent US20260027083A1, “USE OF PPAR AGONIST FOR IMPROVEMENT OF ENERGY METABOLISM” (NOVMETAPHARMA CO., LTD., priority 2022, published 2026).

Legend:
[1] = target: T1, His-tagged recombinant human PPARβ/δ ligand binding domain (Homo sapiens, UniProt Q03181); assay: CNBr-bead conjugation (pull-down) assay, hPPARβ/δ-LBD; details: CNBr-coupled drug, positive control GW501516, FIG. 2
T1 construct: made in house; host or cells: E. coli (DE3, Rosetta)
T1 sequence (Q03181 211-439 limits assumed): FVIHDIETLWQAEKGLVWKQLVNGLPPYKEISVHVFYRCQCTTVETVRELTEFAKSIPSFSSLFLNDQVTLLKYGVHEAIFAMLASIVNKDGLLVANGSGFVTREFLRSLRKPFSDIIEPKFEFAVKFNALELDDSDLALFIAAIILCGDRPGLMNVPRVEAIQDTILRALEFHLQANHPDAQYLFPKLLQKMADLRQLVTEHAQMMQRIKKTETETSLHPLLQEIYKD
Description: A compound of the present invention represented by Chemical Formula 1 was synthesized by DAEJUNG Chemicals & Metals (Gyeonggi-do, Korea) (indicated as ‘D6’ in the drawing). WY14643, GW501516, and rosiglitazone were purchased from Sigma-Aldrich (St. Louis, MO, USA). The compounds were dissolved in dimethyl sulfoxide (DMSO), diluted in a culture solution, and used in the experiment. Cyanogen bromide (CNBr)-activated Sepharose 4B was purchased from Sigma-Aldrich (St. Louis, MO, USA). His-tagged recombinant human PPAR-ligand binding domain (LBD) was expressed in E. coli (DE3, Rosetta) and then purified and used. A His antibody was purchased from Cell Signaling Technology (Danvers, Massachusetts, USA). 3-Isobutyl-1-methylxanthine (IBMX), dexamethasone, bovine pancreatic insulin, and Oil Red O were purchased from Sigma-Aldrich (St. Louis, MO, USA). A PRO-PREP™ Protein Extraction Solution was purchased from iNtRON Biotechnology (iNtRON Biotech., Korea). […]
100 mg of CNBr-activated Sepharose 4B was added to an e-tube, and then the beads were activated by rotating with 1 ml of 1 mM HCl for 10 minutes at room temperature. […] Each e-tube was added with the drug and rotated overnight at 4° C., at which time the concentration was measured to be 20 μM. […] The supernatant was completely removed, and the pellet was detected by Western blotting. […]

high-fat diet mice [2] = assay: High-fat diet mice: body weight and food intake; type: in vivo, C57BL/6J mice; details: 5 mg/kg/day oral, 13 weeks, 60% HFD, vs HFD-V, FIG. 6
Description: (§1) The care and use of experimental animals were carried out with the approval of the Institutional Animal Care and Use Committee of Pohang University of Science and Technology. C57BL/6J mice were purchased from Japan SLC, Inc. 50 four-week-old male C57/BL/6J mice were acclimated for 2 weeks. The mice were randomly divided and orally administered with vehicle or 5 mg/kg/day of D6 or WY14643 for 13 weeks (oral gavage), and obesity was induced by a 60% high-fat diet (#D12492, Research diets, NJ, USA). Body weights and food intakes were measured weekly from 6 weeks of age, and after 16 weeks of age, adipose tissue and muscle volumes were measured using a Trimodality imaging system.
(§2) To confirm a metabolic disease inhibitory effect of the compound represented by Chemical Formula 1 through animal experiments, mice were acclimated for 2 weeks, and then obesity was induced by feeding a 60% high fat diet (HFD) and orally administered with vehicle or 5 mg/kg/day of the compound represented by Chemical Formula 1 (D6) or WY14643 for 13 weeks. Experiments such as IP-GTT, IP-ITT, and micro-CT were performed at the week 10 of drug administration (FIG. 5).

high-fat diet mice [3] = assay: Serum analysis of high-fat diet mice; type: in vivo, C57BL/6J mice; details: 5 mg/kg/day oral, 60% HFD
Description: as §1
Mouse blood was obtained by cardiac puncture and incubated at room temperature for 30 minutes. Next, the blood sample was centrifuged at 3,000 rpm for 30 minutes at 4° C., and then the supernatant was collected and analyzed.
as §2

Compound: COc1ccc(-c2cc(=O)oc3c(C)c(OC(=O)[C@H](Cc4c[nH]c5ccccc45)NC(=O)OC(C)(C)C)ccc23)cc1 [Chemical Formula 1, [4-(4-methoxyphenyl)-8-methyl-2-oxochromen-7-yl] (2S)-3-(1H-indol-3-yl)-2-[(2-methylpropan-2-yl)oxycarbonylamino]propanoate]
- conjugation (binding) to hPPARβ/δ-LBD, Western blotting [1]: as much potently as a PPAR agonist used as a positive control
- food intake (high-fat diet mice [2]): no significant change
- rate of weight gain (high-fat diet mice [2]): significantly reduced
- blood sugar (serum glucose) (high-fat diet mice [3]; FIG. 12): significantly reduced
- blood lipids (LDLC) (high-fat diet mice [3]; FIG. 13): significantly reduced
